Measurements as given in patent publication US8883826B2, “Alkynyl derivatives as modulators of metabotropic glutamate receptors” (Addex Pharma SA, priority 2004, dated 2014).

Target: T1, mGluR5 (Rattus norvegicus, UniProt P31424)
T1 construct: tissue Charles River Laboratories; host or cells: rat brain cortex membranes (Sprague-Dawley)
Experiment: mGluR5 binding assay ([3H]-MPEP radioligand competition)
Settings: competition with 3 nM [3H]-MPEP, rat brain cortical membranes, 1 h at 4 °C; mean of at least three independent experiments in duplicate
Text: Activity of compounds of the invention was examined following a radioligand binding technique using whole rat brain and tritiated 2-methyl-6-(phenylethynyl)-pyridine ([^3H]-MPEP) as a ligand following similar methods than those described in F. Gasparini et al. Bioorg. Med. Chem. Lett. 2002, 12, 407-409 and in J. F. Anderson et al. J. Pharmacol. Exp. Ther. 2002, 303, 3, 1044-1051.
Cortices were dissected out from brains of 200-300 g Sprague-Dawley rats (Charles River Laboratories, L'Arbresle, France). Tissues were homogenized in 10 volumes (vol/wt) of ice-cold 50 mM Hepes-NaOH (pH 7.4) using a Polytron disrupter (Kinematica AG, Luzern, Switzerland) and centrifuged for 30 min at 40,000 g. (4° C.). The supernatant was discarded and the pellet washed twice by resuspension in 10 volumes 50 mM HEPES-NaOH. Membranes were then collected by centrifugation and washed before final resuspension in 10 volumes of 20 mM HEPES-NaOH, pH 7.4. Protein concentration was determined by the Bradford method (Bio-Rad protein assay, Reinach, Switzerland) with bovine serum albumin as standard.
[^3H]-MPEP Binding Experiments:
Membranes were thawed and resuspended in binding buffer containing 20 mM HEPES-NaOH, 3 mM MgCl2, 3 mM CaCl2, 100 mM NaCl, pH 7.4. Competition studies were carried out by incubating for 1 h at 4° C.: 3 nM [^3H]-MPEP (39 Ci/mmol, Tocris, Cookson Ltd, Bristol, U.K.), 50 μg membrane and a concentration range of 0.003 nM-30 μM of compounds, for a total reaction volume of 300 μl. The non-specific binding was defined using 30 μM MPEP. Reaction was terminated by rapid filtration over glass-fiber filter plates (Unifilter 96-well GF/B filter plates, Perkin-Elmer, Schwerzenbach, Switzerland) using 4×400 μl ice cold buffer using cell harvester (Filtermate, Perkin-Elmer, Downers Grove, USA). Radioactivity was determined by liquid scintillation spectrometry using a 96-well plate reader (TopCount, Perkin-Elmer, Downers Grove, USA).
The inhibition curves were generated using the Prism GraphPad program (Graph Pad Software Inc, San Diego, USA). IC50 determinations were made from data obtained from 8 point-concentration response curves using a non linear regression analysis.
The table below represents the mean of IC50 obtained from at least three independent experiments of selected molecules performed in duplicate.

T1 sequence (P31424 21-1203): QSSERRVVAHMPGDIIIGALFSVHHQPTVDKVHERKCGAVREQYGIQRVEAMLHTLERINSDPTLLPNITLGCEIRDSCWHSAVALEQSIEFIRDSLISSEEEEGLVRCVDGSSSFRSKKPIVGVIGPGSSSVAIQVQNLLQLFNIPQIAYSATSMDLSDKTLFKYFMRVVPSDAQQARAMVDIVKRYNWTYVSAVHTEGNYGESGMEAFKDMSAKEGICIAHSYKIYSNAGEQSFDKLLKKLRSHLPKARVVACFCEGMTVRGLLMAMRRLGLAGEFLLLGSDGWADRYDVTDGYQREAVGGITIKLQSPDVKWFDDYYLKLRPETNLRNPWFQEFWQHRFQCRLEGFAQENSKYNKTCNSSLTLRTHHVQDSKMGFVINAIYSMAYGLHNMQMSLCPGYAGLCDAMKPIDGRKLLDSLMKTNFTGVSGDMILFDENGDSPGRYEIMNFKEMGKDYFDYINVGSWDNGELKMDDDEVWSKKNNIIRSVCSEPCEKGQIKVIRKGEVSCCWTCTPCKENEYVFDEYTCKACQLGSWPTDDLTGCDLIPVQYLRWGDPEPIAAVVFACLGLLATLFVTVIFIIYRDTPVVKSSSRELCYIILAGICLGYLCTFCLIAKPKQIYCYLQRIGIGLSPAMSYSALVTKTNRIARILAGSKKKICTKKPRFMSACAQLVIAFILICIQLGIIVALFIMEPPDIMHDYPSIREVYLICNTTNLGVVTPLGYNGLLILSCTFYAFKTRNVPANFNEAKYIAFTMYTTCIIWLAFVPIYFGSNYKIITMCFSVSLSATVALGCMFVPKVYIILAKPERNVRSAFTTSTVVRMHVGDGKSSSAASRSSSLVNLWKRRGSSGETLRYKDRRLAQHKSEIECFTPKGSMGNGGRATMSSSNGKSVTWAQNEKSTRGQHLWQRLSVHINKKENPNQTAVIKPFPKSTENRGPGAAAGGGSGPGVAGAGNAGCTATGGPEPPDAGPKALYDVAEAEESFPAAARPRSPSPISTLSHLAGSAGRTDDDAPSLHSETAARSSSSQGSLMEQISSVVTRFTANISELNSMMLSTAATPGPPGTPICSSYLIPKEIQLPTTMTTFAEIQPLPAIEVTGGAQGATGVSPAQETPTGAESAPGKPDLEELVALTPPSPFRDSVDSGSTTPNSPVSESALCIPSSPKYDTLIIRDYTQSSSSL

For `Fc1cccc2nc(CCC#Cc3ccccn3)oc12` [Example 64, 7-Fluoro-2-(4-(pyridin-2-yl)but-3-ynyl)benzo[d]oxazole], which IC50 is on record?
The IC50 was less than 50 nM.

Which IC50 does the source give for `C(#Cc1ccccn1)CCc1ncc(-c2ccccc2)o1` [Example 65, 2-(4-(5-Phenyloxazol-2-yl)but-1-ynyl)pyridine] here?
Its IC50 is less than 50 nM.

Which IC50 does the source give for `Cc1c(Cl)cccc1-c1noc(CCC#Cc2ccccn2)n1` [Example 66, 2-(4-(3-(3-Chloro-2-methylphenyl)-1,2,4-oxadiazol-5-yl)but-1-ynyl)pyridine] here?
The IC50 was less than 500 nM.

`Cc1cccn2cc(CCC#Cc3ccccn3)nc12` [Example 67, 8-Methyl-2-(4-(pyridin-2-yl)but-3-ynyl)-imidazo[1,2-a]pyridine] was tested. Which IC50 did it give?
Its IC50 is less than 10000 nM.

Which IC50 does the source give for `Cc1cccc2nc(CCC#Cc3ccccn3)cn12` [Example 68, 5-Methyl-2-(4-(pyridin-2-yl)but-3-ynyl)-imidazo[1,2-a]pyridine] here?
The IC50 was less than 10000 nM.

With `C(#Cc1ccccn1)CCc1cn2c(-c3ccccc3)cccc2n1` [Example 69, 5-Phenyl-2-(4-(pyridin-2-yl)but-3-ynyl)-imidazo[1,2-a]pyridine] as the compound, how does the IC50 read?
The IC50 was less than 50 nM.

For `Oc1cccc2oc(CCC#Cc3ccccn3)nc12` [Example 70, 2-(4-(Pyridin-2-yl)but-3-ynyl)benzo[d]oxazol-4-ol], which IC50 is on record?
The IC50 was less than 10000 nM.

Which IC50 does the source give for `Fc1ccc(C#CCCc2nc3ccccc3o2)nc1` [Example 71, 2-(4-(5-Fluoropyridin-2-yl)but-3-ynyl)benzo[d]oxazole] here?
Its IC50 is less than 10000 nM.

With `COc1cccc2oc(CCC#Cc3ccccn3)nc12` [Example 72, 4-Methoxy-2-(4-(pyridin-2-yl)but-3-ynyl)benzo[d]oxazole] as the compound, how does the IC50 read?
Its IC50 is less than 10000 nM.

How did the IC50 turn out when `Cc1nc(C#CCCc2cn3ccccc3n2)cs1` [Example 73, 2-(4-(2-Methylthiazol-4-yl)but-3-ynyl)imidazo[1,2-a]pyridine] was run?
Its IC50 is less than 10000 nM.

How did the IC50 turn out when `Fc1ccc2nc(CCC#Cc3ccccn3)cn2c1` [Example 74, 6-Fluoro-2-(4-(pyridin-2-yl)but-3-ynyl)-imidazo[1,2-a]pyridine] was run?
The IC50 was less than 10000 nM.

Which IC50 does the source give for `Fc1ccc(C#CCCc2cn3ccccc3n2)nc1` [Example 75, 2-(4-(5-Fluoropyridin-2-yl)but-3-ynyl)-imidazo[1,2-a]pyridine] here?
The IC50 was less than 10000 nM.

How did the IC50 turn out when `C(#Cc1ccccn1)CCc1nc2cccnc2o1` [Example 76, 2-(4-(Pyridin-2-yl)but-3-ynyl)oxazolo[5,4-b]pyridine] was run?
The IC50 was less than 10000 nM.

For `Fc1cc(Cl)c2oc(CCC#Cc3ccccn3)nc2c1` [Example 77, 7-Chloro-5-fluoro-2-(4-(pyridin-2-yl)but-3-ynyl)benzo[d]oxazole], which IC50 is on record?
Its IC50 is less than 50 nM.

With `C(#Cc1ccccn1)CCc1nc2ncccc2o1` [Example 78, 2-(4-(Pyridin-2-yl)but-3-ynyl)oxazolo[4,5-b]pyridine] as the compound, how does the IC50 read?
Its IC50 is less than 10000 nM.

Which IC50 does the source give for `N#Cc1ccc2oc(CCC#Cc3ccccn3)nc2c1` [Example 79, 2-(4-(Pyridin-2-yl)but-3-ynyl)benzo[d]oxazole-5-carbonitrile] here?
The IC50 was less than 10000 nM.

With `Cc1nc(C#CCCc2nc3cc(F)cc(Cl)c3o2)cs1` [Example 80, 7-Chloro-5-fluoro-2-(4-(2-methylthiazol-4-yl)but-3-ynyl)benzo[d]oxazole] as the compound, how does the IC50 read?
Its IC50 is less than 50 nM.

`FC(F)(F)c1cccc2nc(CCC#Cc3ccccn3)oc12` [Example 81, 7-(Trifluoromethyl)-2-(4-(pyridin-2-yl)but-3-ynyl)benzo[d]oxazole] was tested. Which IC50 did it give?
Its IC50 is less than 50 nM.

For `Fc1cc(Br)c2oc(CCC#Cc3ccccn3)nc2c1` [Example 82, 7-Bromo-5-fluoro-2-(4-(pyridin-2-yl)but-3-ynyl)benzo[d]oxazole], which IC50 is on record?
Its IC50 is less than 50 nM.

Which IC50 does the source give for `Fc1cc(-c2ccccc2)c2oc(CCC#Cc3ccccn3)nc2c1` [Example 83, 5-Fluoro-7-phenyl-2-(4-(pyridin-2-yl)but-3-ynyl)benzo[d]oxazole] here?
The IC50 was less than 10000 nM.

`Clc1nccc(C#CCCc2nc3ccccc3o2)n1` [Example 84, 2-(4-(2-Chloropyrimidin-4-yl)but-3-ynyl)benzo[d]oxazole] was tested. Which IC50 did it give?
Its IC50 is less than 10000 nM.

Which IC50 does the source give for `Brc1cccc2oc(CCC#Cc3ccccn3)nc12` [Example 86, 4-Bromo-2-(4-(pyridin-2-yl)but-3-ynyl)benzo[d]oxazole] here?
Its IC50 is less than 50 nM.

For `C(#Cc1ccccn1)CCc1nc2c(-c3ccccc3)cccc2o1` [Example 87, 4-Phenyl-2-(4-(pyridin-2-yl)but-3-ynyl)benzo[d]oxazole], which IC50 is on record?
Its IC50 is less than 10000 nM.

How did the IC50 turn out when `Clc1cccc2oc(CCC#Cc3ccccn3)nc12` [Example 88, 4-Chloro-2-(4-(pyridin-2-yl)but-3-ynyl)benzo[d]oxazole] was run?
Its IC50 is less than 50 nM.

`Cc1cccc2nc(CCC#Cc3ccccn3)oc12` [Example 91, 7-Methyl-2-(4-(pyridin-2-yl)but-3-ynyl)benzo[d]oxazole] was tested. Which IC50 did it give?
Its IC50 is less than 50 nM.

How did the IC50 turn out when `COc1cccc2nc(CCC#Cc3ccccn3)oc12` [Example 94, 7-Methoxy-2-(4-(pyridin-2-yl)but-3-ynyl)benzo[d]oxazole] was run?
Its IC50 is less than 50 nM.

Which IC50 does the source give for `CC(C)c1cccc2nc(CCC#Cc3ccccn3)oc12` [Example 95, 7-Isopropyl-2-(4-(pyridin-2-yl)but-3-ynyl)benzo[d]oxazole] here?
The IC50 was less than 10000 nM.

With `Fc1ccc(F)c2oc(CCC#Cc3ccccn3)nc12` [Example 96, 4,7-Difluoro-2-(4-(pyridin-2-yl)but-3-ynyl)benzo[d]oxazole] as the compound, how does the IC50 read?
The IC50 was less than 50 nM.

Which IC50 does the source give for `Fc1ccc(C(F)(F)F)c2nc(CCC#Cc3ccccn3)oc12` [Example 97, 7-Fluoro-4-(trifluoromethyl)-2-(4-(pyridin-2-yl)but-3-ynyl)benzo[d]oxazole] here?
Its IC50 is less than 10000 nM.

With `C(#Cc1ccncn1)CCc1nc2ccccc2o1` [Example 98, 2-(4-(Pyrimidin-4-yl)but-3-ynyl)benzo[d]oxazole] as the compound, how does the IC50 read?
Its IC50 is less than 10000 nM.

`CN(C(=O)CCC#Cc1ccccn1)c1cccc(Cl)c1` [Example 99, N-(3-Chlorophenyl)-N-methyl-5-(pyridin-2-yl)pent-4-ynamide] was tested. Which IC50 did it give?
Its IC50 is less than 10000 nM.

For `Cc1ccc(Cl)c2sc(CCC#Cc3ccccn3)nc12` [Example 100, 7-Chloro-4-methyl-2-(4-(pyridin-2-yl)but-3-ynyl)benzo[d]thiazole], which IC50 is on record?
The IC50 was less than 10000 nM.

How did the IC50 turn out when `Fc1cccc2sc(CCC#Cc3ccccn3)nc12` [Example 101, 4-Fluoro-2-(4-(pyridin-2-yl)but-3-ynyl)benzo[d]thiazole] was run?
Its IC50 is less than 50 nM.

Which IC50 does the source give for `Cc1ccc(C)c2sc(CCC#Cc3ccccn3)nc12` [Example 102, 4,7-Dimethyl-2-(4-(pyridin-2-yl)but-3-ynyl)benzo[d]thiazole] here?
The IC50 was less than 10000 nM.

How did the IC50 turn out when `Cc1cccc2sc(CCC#Cc3ccccn3)nc12` [Example 103, 4-Methyl-2-(4-(pyridin-2-yl)but-3-ynyl)benzo[d]thiazole] was run?
Its IC50 is less than 50 nM.

Which IC50 does the source give for `Fc1ccc2sc(CCC#Cc3ccccn3)nc2c1` [Example 104, 5-Fluoro-2-(4-(pyridin-2-yl)but-3-ynyl)benzo[d]thiazole] here?
The IC50 was less than 50 nM.

Which IC50 does the source give for `Clc1cccc2sc(CCC#Cc3ccccn3)nc12` [Example 105, 4-Chloro-2-(4-(pyridin-2-yl)but-3-ynyl)benzo[d]thiazole] here?
Its IC50 is less than 50 nM.

For `Cn1c(CCC#Cc2ccccn2)nc2ccccc21` [Example 107, 1-Methyl-2-(4-(pyridin-2-yl)but-3-ynyl)-1H-benzo[d]imidazole], which IC50 is on record?
The IC50 was less than 500 nM.

Which IC50 does the source give for `C(#Cc1ccccn1)CCn1cc2ccccc2n1` [Example 108, 2-(4-(Pyridin-2-yl)but-3-ynyl)-2H-indazole] here?
Its IC50 is less than 500 nM.

Which IC50 does the source give for `C(#Cc1ccccn1)CCn1nc2ccccc2n1` [Example 109, 2-(4-(Pyridin-2-yl)but-3-ynyl)-2H-benzo[d][1,2,3]triazole] here?
The IC50 was less than 500 nM.

How did the IC50 turn out when `C(#Cc1ccccn1)CCc1cc(-c2ccccc2)no1` [Example 111, 2-(4-(3-Phenylisoxazol-5-yl)but-1-ynyl)pyridine] was run?
The IC50 was less than 10000 nM.

With `Cc1nc(C#CCCc2nc3ccccc3s2)cs1` [Example 112, 2-(4-(2-Methylthiazol-4-yl)but-3-ynyl)benzo[d]thiazole] as the compound, how does the IC50 read?
The IC50 was less than 50 nM.

How did the IC50 turn out when `Fc1ccc(C#CCCc2nc3ccccc3s2)nc1` [Example 113, 2-(4-(5-Fluoropyridin-2-yl)but-3-ynyl)benzo[d]thiazole] was run?
Its IC50 is less than 10000 nM.

Which IC50 does the source give for `Cc1cccc(C#CCCc2nc3ccccc3s2)n1` [Example 114, 2-(4-(6-Methylpyridin-2-yl)but-3-ynyl)benzo[d]thiazole] here?
The IC50 was less than 50 nM.

How did the IC50 turn out when `Fc1ccc(Cl)c2sc(CCC#Cc3ccccn3)nc12` [Example 116, 7-Chloro-4-fluoro-2-(4-(pyridin-2-yl)but-3-ynyl)benzo[d]thiazole] was run?
Its IC50 is less than 50 nM.

Which IC50 does the source give for `Fc1cccc(C#CCCc2nc3ccccc3s2)n1` [Example 117, 2-(4-(6-Fluoropyridin-2-yl)but-3-ynyl)benzo[d]thiazole] here?
The IC50 was less than 10000 nM.

With `C(#Cc1ccccn1)CCc1ccc2ccccc2n1` [Example 118, 2-(4-(Pyridin-2-yl)but-3-ynyl)quinoline] as the compound, how does the IC50 read?
The IC50 was less than 500 nM.
